Tested on: A498 complex spheroids with HUVEC/MSC, growth
Test: Anticancer human tumor A498 cell line growth inhibition [AhR];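 further: seven day exposure starting three days after spheroid seeding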;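 on viability, T/C: luminescence signal used as a surrogate for viable cells; luminescence viability scaled so 100% equals DMSO vehicle wells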
Details: for IC50: curve of first compound; for viability, T/C: stronger effect = lower value; active means viability on the fitted dose curve at most 10% of control; inactive means the rest
Procedure, shortened: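 Spheroids combined tumor cells with HUVEC endothelial cells and human MSCs as stroma. AhR antagonists were paired with standard or investigational drugs, each dosed in half-log steps down from near clinical Cmax, or from 10 microM where Cmax was unknown.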

CC(C)CC(NC(=O)C(Cc1ccccc1)NC(=O)c1cnccn1)B(O)O (stereo not given) + CC(CO)NC(=O)c1cc(-c2ccc(Cl)cc2)nn(-c2cnn(C)c2)c1=O
3.2 nM: IC50 (second compound 0.316 µM)
active: viability, T/C (second compound 0.1 µM, first compound 0.00949 µM) 3.71% | viability, T/C (second compound 0.1 µM, first compound 0.03 µM) 0.58% | viability, T/C (second compound 0.1 µM, first compound 0.0949 µM) 2.33% | viability, T/C (second compound 0.1 µM, first compound 0.3 µM) 1.23% | viability, T/C (second compound 0.316 µM, first compound 0.00949 µM) 4.62% | viability, T/C (second compound 0.316 µM, first compound 0.03 µM) 1.25% | viability, T/C (second compound 0.316 µM, first compound 0.0949 µM) 0.46% | viability, T/C (second compound 0.316 µM, first compound 0.3 µM) 1.14% | viability, T/C (second compound 1 µM, first compound 0.00949 µM) 4.69% | viability, T/C (second compound 1 µM, first compound 0.03 µM) 1.75% | viability, T/C (second compound 1 µM, first compound 0.0949 µM) 1.82% | viability, T/C (second compound 1 µM, first compound 0.3 µM) 2.86% | viability, T/C (second compound 3.16 µM, first compound 0.00949 µM) 5.03% | viability, T/C (second compound 3.16 µM, first compound 0.03 µM) 1.11% | viability, T/C (second compound 3.16 µM, first compound 0.0949 µM) 3.08% | viability, T/C (second compound 3.16 µM, first compound 0.3 µM) 0.24% | viability, T/C (second compound 10 µM, first compound 0.00949 µM) 4.31% | viability, T/C (second compound 10 µM, first compound 0.03 µM) 0.81% | viability, T/C (second compound 10 µM, first compound 0.0949 µM) 2.81% | viability, T/C (second compound 10 µM, first compound 0.3 µM) 0.32%
2.67 nM: IC50 (second compound 1 µM)
inactive: viability, T/C (second compound 0.1 µM, first compound 0.000949 µM) 91.1% | viability, T/C (second compound 0.1 µM, first compound 0.003 µM) 49.4% | viability, T/C (second compound 0.316 µM, first compound 0.000949 µM) 90% | viability, T/C (second compound 0.316 µM, first compound 0.003 µM) 52.6% | viability, T/C (second compound 1 µM, first compound 0.000949 µM) 87.2% | viability, T/C (second compound 1 µM, first compound 0.003 µM) 45.8% | viability, T/C (second compound 3.16 µM, first compound 0.000949 µM) 79.4% | viability, T/C (second compound 3.16 µM, first compound 0.003 µM) 37.6% | viability, T/C (second compound 10 µM, first compound 0.000949 µM) 65.7% | viability, T/C (second compound 10 µM, first compound 0.003 µM) 29.6%
1.57 nM: IC50 (second compound 10 µM)
2.95 nM: IC50 (second compound 0.1 µM)
2.13 nM: IC50 (second compound 3.16 µM)

COc1cc(Nc2ncc3c(n2)-c2ccc(Cl)cc2C(c2c(F)cccc2OC)=NC3)ccc1C(=O)O + CC(CO)NC(=O)c1cc(-c2ccc(Cl)cc2)nn(-c2cnn(C)c2)c1=O
1360 nM: IC50 (second compound 0.316 µM)
892 nM: IC50 (second compound 1 µM)
455 nM: IC50 (second compound 10 µM)
1060 nM: IC50 (second compound 3.16 µM)
inactive: viability, T/C (second compound 0.1 µM, first compound 0.0316 µM) 62.6% | viability, T/C (second compound 0.1 µM, first compound 0.1 µM) 69.4% | viability, T/C (second compound 0.1 µM, first compound 0.316 µM) 63.5% | viability, T/C (second compound 0.1 µM, first compound 1 µM) 50.2% | viability, T/C (second compound 0.1 µM, first compound 3.16 µM) 45.3% | viability, T/C (second compound 0.1 µM, first compound 10 µM) 33.2% | viability, T/C (second compound 0.316 µM, first compound 0.0316 µM) 70% | viability, T/C (second compound 0.316 µM, first compound 0.1 µM) 67.9% | viability, T/C (second compound 0.316 µM, first compound 0.316 µM) 64.5% | viability, T/C (second compound 0.316 µM, first compound 1 µM) 50.7% | viability, T/C (second compound 0.316 µM, first compound 3.16 µM) 43.3% | viability, T/C (second compound 0.316 µM, first compound 10 µM) 32.3% | viability, T/C (second compound 1 µM, first compound 0.0316 µM) 60.1% | viability, T/C (second compound 1 µM, first compound 0.1 µM) 67.5% | viability, T/C (second compound 1 µM, first compound 0.316 µM) 61.1% | viability, T/C (second compound 1 µM, first compound 1 µM) 47% | viability, T/C (second compound 1 µM, first compound 3.16 µM) 41.5% | viability, T/C (second compound 1 µM, first compound 10 µM) 33.5% | viability, T/C (second compound 3.16 µM, first compound 0.0316 µM) 55.1% | viability, T/C (second compound 3.16 µM, first compound 0.1 µM) 59.9% | viability, T/C (second compound 3.16 µM, first compound 0.316 µM) 59.1% | viability, T/C (second compound 3.16 µM, first compound 1 µM) 47.2% | viability, T/C (second compound 3.16 µM, first compound 3.16 µM) 42.2% | viability, T/C (second compound 3.16 µM, first compound 10 µM) 30.8% | viability, T/C (second compound 10 µM, first compound 0.0316 µM) 49.6% | viability, T/C (second compound 10 µM, first compound 0.1 µM) 55% | viability, T/C (second compound 10 µM, first compound 0.316 µM) 53.3% | viability, T/C (second compound 10 µM, first compound 1 µM) 44.8% | viability, T/C (second compound 10 µM, first compound 3.16 µM) 37.4% | viability, T/C (second compound 10 µM, first compound 10 µM) 34.9%
1490 nM: IC50 (second compound 0.1 µM)

Reference: PubChem BioAssay AID1919007 (Molecular Pharmacology Branch, DTP, NCI, 2023)
